Laboratory results taken from ChEMBL document CHEMBL4765241, “Identification and Preclinical Pharmacology of ((1 R,3 S)-1-Amino-3-(( S)-6-(2-methoxyphenethyl)-5,6,7,8-tetrahydronaphthalen-2-yl)cyclopentyl)methanol (BMS-986166): A Differentiated Sphingosine-1-phosphate Receptor 1 (S1P) Modulator Advanced into Clinical Trials” (J Med Chem, 2019).
One block for each compound: values may come before it.

Legend:
[1] = Drug metabolism in pH 7.4 Tris-HCl buffer assessed as amount of phosphate ester metabolite formation at […] in presence of sphingosine kinase 1,2 and Mg-ATP incubated for 30 mins by TLC based analysis relative to fingolimod
Mus musculus [2] = test: Reduction in circulating lymphocytes in Balb/c mouse blood at 30 mg/kg, po measured at 24 hrs by hematology analyzer based analysis; assay type: functional; design: scale not given: the % may be the effect or the level left; settings: 30 mg/kg, 24 h
Mus musculus [3] = test: Reduction in circulating lymphocytes in Balb/c mouse blood at 30 mg/kg, po measured at 4 hrs by hematology analyzer based analysis; assay type: functional; design: scale not given: the % may be the effect or the level left; settings: 30 mg/kg, 4 h
[4] = Drug metabolism in Balb/c mouse blood assessed as concentration of parent compound at 1 mg/kg, po measured at 24 hrs by LC-MS/MS analysis; assay type: ADME, organism-based; settings: read-out: Ct
[5] = Drug metabolism in Balb/c mouse blood assessed as concentration of phosphate ester metabolite formation at 30 mg/kg, po measured at 24 hrs by LC-MS/MS analysis; assay type: ADME, organism-based; settings: in vivo
Mus musculus [6] = test: Reduction in circulating lymphocytes in Balb/c mouse blood at 1 mg/kg, po measured at 4 hrs by hematology analyzer based analysis; assay type: functional; design: scale not given: the % may be the effect or the level left
[7] = Drug metabolism in Balb/c mouse blood assessed as concentration of parent compound at 1 mg/kg, po measured at 4 hrs by LC-MS/MS analysis; assay type: ADME, organism-based; settings: in vivo, 1 mg/kg, 4 h, 1 mg/kg, 4 h, read-out: Ct
Mus musculus [8] = test: Reduction in circulating lymphocytes in Balb/c mouse blood at 1 mg/kg, po measured at 24 hrs by hematology analyzer based analysis; assay type: functional; design: scale not given: the % may be the effect or the level left; settings: 1 mg/kg, 24 h
[9] = Drug metabolism in Balb/c mouse blood assessed as concentration of parent compound at 30 mg/kg, po measured at 24 hrs by LC-MS/MS analysis; assay type: ADME, organism-based; settings: in vivo, 30 mg/kg, 24 h, 30 mg/kg, 24 h, read-out: Ct
[10] = Drug metabolism in Balb/c mouse blood assessed as phosphate ester metabolite formation at 30 mg/kg, po measured at 4 hrs by LC-MS/MS analysis; assay type: ADME, organism-based; settings: in vivo
[11] = Drug metabolism in Balb/c mouse blood assessed as concentration of phosphate ester metabolite formation at 1 mg/kg, po measured at 4 hrs by LC-MS/MS analysis; assay type: ADME, organism-based; settings: in vivo, BLD = below limit of detection
[12] = Drug metabolism in Balb/c mouse blood assessed as concentration of parent compound at 30 mg/kg, po measured at 4 hrs by LC-MS/MS analysis; assay type: ADME, organism-based; settings: read-out: Ct
[13] = Drug metabolism in Balb/c mouse blood assessed as concentration of phosphate ester metabolite formation at 1 mg/kg, po measured at 24 hrs by LC-MS/MS analysis; assay type: ADME, organism-based; settings: in vivo, BLD = below limit of detection
[14] = Ratio of drug metabolism in Balb/c mouse blood assessed as phosphate ester metabolite to parent drug at 30 mg/kg, po measured at 24 hrs by LC-MS/MS analysis; assay type: ADME, organism-based; settings: in vivo
[15] = Drug metabolism in Lewis rat blood assessed as concentration of parent compound at 2 mg/kg, po measured at 4 hrs by LC-MS/MS analysis; assay type: ADME, organism-based; settings: read-out: Ct
Rattus norvegicus [16] = test: Drug metabolism in Lewis rat blood assessed as concentration of phosphate ester metabolite formation at 2 mg/kg, po measured at 4 hrs by LC-MS/MS analysis; settings: in vivo
[17] = Half-life in Lewis rat at 2 mg/kg, po measured over 72 hrs by LC-MS/MS analysis; assay type: ADME, organism-based; settings: in vivo
[18] = Drug metabolism in Lewis rat blood assessed as concentration of parent compound at 2 mg/kg, po measured at 24 hrs by LC-MS/MS analysis; assay type: ADME, organism-based; settings: read-out: Ct
[19] = Ratio of drug metabolism in Lewis rat blood assessed as phosphate ester metabolite to parent drug at 2 mg/kg, po measured at 24 hrs by LC-MS/MS analysis; assay type: ADME, organism-based; settings: in vivo
Rattus norvegicus [20] = test: Reduction in circulating lymphocytes in Lewis rat blood at 2 mg/kg, po measured at 24 hrs by hematology analyzer based analysis; assay type: functional; design: scale not given: the % may be the effect or the level left; settings: 2 mg/kg, 24 h
Rattus norvegicus [21] = test: Reduction in circulating lymphocytes in Lewis rat blood at 2 mg/kg, po measured at 4 hrs by hematology analyzer based analysis; assay type: functional; design: scale not given: the % may be the effect or the level left

Drug metabolism [1]: 5%
SMILES: Cn1cncc1CCC1CCc2cc([C@H]3CC[C@](N)(CO)C3)ccc2C1 (stereo partly drawn)

Drug metabolism [1]: 4%
SMILES: N[C@]1(CO)CC[C@H](c2ccc3c(c2)CC[C@@H](CCc2ccccn2)C3)C1

Drug metabolism [1]: 3%
SMILES: N[C@]1(CO)CC[C@H](c2ccc3c(c2)CC[C@@H](CCc2cccnc2)C3)C1

Drug metabolism [1]: 4%
SMILES: N[C@]1(CO)CC[C@H](c2ccc3c(c2)CC[C@@H](CCc2ncccn2)C3)C1

Drug metabolism [1]: 1.8%
SMILES: N[C@]1(CO)CC[C@H](c2ccc3c(c2)CC[C@H](CCc2ccccn2)C3)C1

Drug metabolism [1]: 24%
SMILES: N[C@]1(CO)CC[C@H](c2ccc3c(c2)CC[C@H](CCc2cccnc2)C3)C1

Drug metabolism [1]: 6%
SMILES: N[C@]1(CO)CC[C@H](c2ccc3c(c2)CC[C@H](CCc2ncccn2)C3)C1

Drug metabolism [1]: 0%
SMILES: N[C@]1(CO)CC[C@H](c2ccc3c(c2)CCC(CCc2ccncc2)C3)C1 (single isomer, unassigned)

concentration at 24 h ([4]; Balb/c, blood): 27 nM
Drug metabolism [5]: 110 nM
concentration [7]: 44 nM
concentration [9]: 760 nM
Drug metabolism [10]: 43 nM
Drug metabolism [11]: Bld
concentration at 4 h ([12]; Balb/c, blood): 1500 nM
Drug metabolism [13]: Bld
Ratio [14]: 0.14
SMILES: N[C@]1(CO)CC[C@H](c2ccc3c(c2)CCC(c2ccccc2)C3)C1 (stereo in doubt; 8a)
Activity (Mus musculus [2]): 88%
Activity (Mus musculus [3]): 67%
Activity (Mus musculus [6]): <10%
Activity (Mus musculus [8]): <10%

concentration ([4]; in vivo, 1 mg/kg, 24 h, 1 mg/kg, 24 h): 16 nM
Drug metabolism [5]: 49 nM
concentration [7]: 16 nM
concentration [9]: 300 nM
Drug metabolism [10]: 36 nM
concentration ([12]; in vivo, 30 mg/kg, 4 h, 30 mg/kg, 4 h): 750 nM
Ratio [14]: 0.16
SMILES: N[C@]1(CO)CC[C@H](c2ccc3c(c2)CCC(c2ccccc2)C3)C1 (stereo in doubt; 8b)
Activity (Mus musculus [2]): 84%
Activity (Mus musculus [3]): 72%
Activity (Mus musculus [8]): 36%

concentration at 4 h [15]: 50 nM
Drug metabolism (Rattus norvegicus [16]): 10 nM
half-life [17]: 15 h
concentration at 24 h [18]: 20 nM
Ratio [19]: 1
SMILES: COc1cccc(CC2CCc3cc([C@H]4CC[C@](N)(CO)C4)ccc3C2)c1 (stereo in doubt; 12a)
Activity (Rattus norvegicus [20]): 73%
Activity (Rattus norvegicus [21]; 2 mg/kg, 4 h): 30%

SMILES: COc1cccc(CC2CCc3cc([C@H]4CC[C@](N)(CO)C4)ccc3C2)c1 (stereo in doubt; 12b)
Activity (Rattus norvegicus [20]): 45%
Activity (Rattus norvegicus [21]; 2 mg/kg, 4 h): <10%

SMILES: COc1ccc(CC2CCc3cc([C@H]4CC[C@](N)(CO)C4)ccc3C2)cc1 (stereo in doubt; 13a)
Activity (Rattus norvegicus [20]): 52%
Activity (Rattus norvegicus [21]): <10%

concentration at 4 h [15]: 90 nM
Drug metabolism (Rattus norvegicus [16]): 50 nM
half-life [17]: 64 h
concentration at 24 h [18]: 60 nM
Ratio [19]: 1.3
SMILES: COc1ccc(CC2CCc3cc([C@H]4CC[C@](N)(CO)C4)ccc3C2)cc1 (stereo in doubt; 13b)
Activity (Rattus norvegicus [20]): 73%
